In assay [1] the test system is A549. The assay is described as follows: Cell cycle arrest in human A549 cells assessed as accumulation at subG0 phase at […] after 24 hrs by propidium iodide staining based flow cytometry (reference value: 2 +/- 0.8%). Type of assay: functional. On the technique in general: Flow cytometry measures light scatter and fluorescence of single cells or particles in a stream.

The subject of assay [2] is A549. Description: Cell cycle arrest in human A549 cells assessed as accumulation at S phase at […] after 24 hrs by propidium iodide staining based flow cytometry (reference value: 28 +/- 0.6%). Type of assay: functional.
For assay [3], the system named is A549. The assay is described as follows: Induction of apoptosis in human A549 cells at 50 uM after 20 to 24 hrs by Annexin V-FITC/propidium iodide staining based flow cytometry (reference value: 16%). Type of assay: functional.
For assay [4], the system named is A549. Description: Cell cycle arrest in human A549 cells assessed as accumulation at G0/G1 phase at […] after 24 hrs by propidium iodide staining based flow cytometry (reference value: 60 +/- 1%). Type of assay: functional.
The test system of assay [5] is A549. Description: Induction of apoptosis in human A549 cells at 100 uM after 20 to 24 hrs by Annexin V-FITC/propidium iodide staining based flow cytometry (reference value: 16%). Type of assay: functional.
Assay [6] has as its system A549. Description: Cell cycle arrest in human A549 cells assessed as accumulation at G2/M phase at […] after 24 hrs by propidium iodide staining based flow cytometry (reference value: 10 +/- 0.8%). Type of assay: functional.
The target in assay [7] is Vascular endothelial growth factor receptor 2 (Homo sapiens) (UniProt P35968). Description: Inhibition of VEGFR2 internalization in HMEC1 cells assessed as total VEGFR2 level at 120 uM after 24 hrs by flow cytometry (reference value: 100%). Type of assay: cell-based. Also on record: scale not given: the % may be the effect or the level left.
The target is the same in assay [8]. Description: Inhibition of VEGFR2 internalization in HMEC1 cells at 120 uM after 24 hrs by immunofluorescence assay. Type of assay: cell-based.
The target is the same in assay [9]. The assay is described as follows: Inhibition of VEGFR2 internalization in human A549 cells at 48 uM after 24 hrs by immunofluorescence assay. Type of assay: cell-based.
Assay [10] shares this target. Description: Inhibition of VEGFR2 internalization in HMEC1 cells assessed as membrane VEGFR2 level at 120 uM after 24 hrs by flow cytometry (reference value: 100%). Type of assay: cell-based. Also on record: scale not given: the % may be the effect or the level left.
Assay [11] has the same target. Description: Inhibition of VEGFR2 internalization in HMEC1 cells assessed as membrane VEGFR2 level at 12 uM after 24 hrs by flow cytometry (reference value: 100%). Type of assay: cell-based. Also on record: scale not given: the % may be the effect or the level left.
The target of assay [12] is T1, Tubulin (Homo sapiens) (UniProt P68371+Q9H4B7+P0DPH7+P68366+Q13509+Q71U36+P04350+Q3ZCM7+P07437+P68363+Q9BQE3+Q6PEY2+Q13885+Q9BVA1+Q9BUF5). Description: Disruption of microtubule network in human A549 cells assessed as compressed and fragmented nuclei at 28 uM after 16 hrs by Hoechst staining based immunofluorescence microscopic method. Type of assay: cell-based.
For assay [13], the target named is Vascular endothelial growth factor receptor 2 (Homo sapiens) (UniProt P35968). Description: Inhibition of VEGFR2 internalization in human A549 cells at 28 uM after 24 hrs by immunofluorescence assay. Type of assay: cell-based.
The target is the same in assay [14]. The assay is described as follows: Inhibition of VEGFR2 internalization in HMEC1 cells at 12 uM after 24 hrs by immunofluorescence assay. Type of assay: cell-based.
Assay [15] shares this target. The assay is described as follows: Inhibition of VEGFR2 internalization in HMEC1 cells assessed as total VEGFR2 level at 12 uM after 24 hrs by flow cytometry (reference value: 100%). Also on record: scale not given: the % may be the effect or the level left. Type of assay: cell-based.
The target is the same in assay [16]. The assay is described as follows: Inhibition of VEGFR2 internalization in HMEC1 cells at 15 uM after 24 hrs by immunofluorescence assay. Type of assay: cell-based.
Assay [17] shares this target. Description: Inhibition of VEGFR2 internalization in human A549 cells at 44 uM after 24 hrs by immunofluorescence assay. Type of assay: cell-based.
Assay [18] shares this target. The assay is described as follows: Inhibition of VEGFR2 internalization in HMEC1 cells assessed as membrane VEGFR2 level at 15 uM after 24 hrs by flow cytometry (reference value: 100%). Type of assay: cell-based. Set-up: scale not given: the % may be the effect or the level left.
The target is the same in assay [19]. Description: Inhibition of VEGFR2 internalization in HMEC1 cells assessed as total VEGFR2 level at 15 uM after 24 hrs by flow cytometry (reference value: 100%). Type of assay: cell-based. Also on record: scale not given: the % may be the effect or the level left.
For assay [20] the target is unchanged. Description: Inhibition of VEGFR2 internalization in HMEC1 cells at 0.6 uM after 24 hrs by immunofluorescence assay. Type of assay: cell-based.
Assay [21] addresses T1, Tubulin (Homo sapiens). Description: Disruption of microtubule network in human A549 cells assessed as compressed and fragmented nuclei at […] after 16 hrs by Hoechst staining based immunofluorescence microscopic method. Type of assay: cell-based.
Assay [22] has as its target Vascular endothelial growth factor receptor 2 (Homo sapiens) (UniProt P35968). Description: Inhibition of VEGFR2 internalization in HMEC1 cells assessed as total VEGFR2 level at 0.6 uM after 24 hrs by flow cytometry (reference value: 100%). Type of assay: cell-based. Set-up: scale not given: the % may be the effect or the level left.
Assay [23] has the same target. Description: Inhibition of VEGFR2 internalization in HMEC1 cells assessed as membrane VEGFR2 level at 0.6 uM after 24 hrs by flow cytometry (reference value: 100%). Type of assay: cell-based. Set-up: scale not given: the % may be the effect or the level left.
The target is the same in assay [24]. The assay is described as follows: Inhibition of VEGFR2 internalization in human A549 cells at […] after 24 hrs by immunofluorescence assay. Type of assay: cell-based.
The test system of another assay is HL-60. Description: Antiproliferative activity against human HL60 cells by MTT assay. Type of assay: functional, cell-based. (In general: Tetrazolium assays rely on reduction of a dye to a coloured formazan, in cell work by metabolically active cells.)
The test system of the next assay is HMEC-1. Description: Antiangiogenic activity against HMEC1 cells after 20 hrs by tube formation assay. Conditions: Homo sapiens, HMEC-1, 20 h.
Assay [25] concerns the target Vascular endothelial growth factor receptor 2 (Homo sapiens) (UniProt P35968). The assay is described as follows: Inhibition of VEGFR2 internalization in HMEC1 cells assessed as membrane VEGFR2 level at 8 uM after 24 hrs by flow cytometry (reference value: 100%). Type of assay: cell-based. Also on record: scale not given: the % may be the effect or the level left.

The target is the same in assay [26]. Description: Inhibition of VEGFR2 internalization in human A549 cells at 18 uM after 24 hrs by immunofluorescence assay. Type of assay: cell-based.
Assay [27] has as its target T1, Tubulin (Homo sapiens). Description: Disruption of microtubule network in human A549 cells assessed as compressed and fragmented nuclei at 18 uM after 16 hrs by Hoechst staining based immunofluorescence microscopic method. Type of assay: cell-based.
Assay [28] addresses Vascular endothelial growth factor receptor 2 (Homo sapiens) (UniProt P35968). The assay is described as follows: Inhibition of VEGFR2 internalization in HMEC1 cells at 8 uM after 24 hrs by immunofluorescence assay. Type of assay: cell-based.
Assay [29] has the same target. The assay is described as follows: Inhibition of VEGFR2 internalization in HMEC1 cells assessed as total VEGFR2 level at 8 uM after 24 hrs by flow cytometry (reference value: 100%). Type of assay: cell-based. Also on record: scale not given: the % may be the effect or the level left.
Assay [30] relates to A549. The assay is described as follows: Cell cycle arrest in human A549 cells assessed as accumulation at G0/G1 phase at 22 uM after 24 hrs by propidium iodide staining based flow cytometry (reference value: 60 +/- 1%). Type of assay: functional.
The test system of assay [31] is A549. Description: Cell cycle arrest in human A549 cells assessed as accumulation at subG0 phase at 22 uM after 24 hrs by propidium iodide staining based flow cytometry (reference value: 2 +/- 0.8%). Type of assay: functional.
Assay [32] concerns A549. Description: Cell cycle arrest in human A549 cells assessed as accumulation at G2/M phase at 22 uM after 24 hrs by propidium iodide staining based flow cytometry (reference value: 10 +/- 0.8%). Type of assay: functional.
Assay [33] concerns A549. The assay is described as follows: Cell cycle arrest in human A549 cells assessed as accumulation at S phase at 22 uM after 24 hrs by propidium iodide staining based flow cytometry (reference value: 28 +/- 0.6%). Type of assay: functional.
Assay [34] deals with Vascular endothelial growth factor receptor 2 (Homo sapiens) (UniProt P35968). Description: Inhibition of VEGFR2 internalization in HMEC1 cells assessed as total VEGFR2 level at […] after 24 hrs by flow cytometry (reference value: 100%). Set-up: scale not given: the % may be the effect or the level left. Type of assay: cell-based.
For assay [35] the target is unchanged. Description: Inhibition of VEGFR2 internalization in HMEC1 cells assessed as membrane VEGFR2 level at […] after 24 hrs by flow cytometry (reference value: 100%). Type of assay: cell-based. Also on record: scale not given: the % may be the effect or the level left.
Assay [36] has the same target. Description: Inhibition of VEGFR2 internalization in HMEC1 cells assessed as total VEGFR2 level at 6 uM after 24 hrs by flow cytometry (reference value: 100%). Type of assay: cell-based. Set-up: scale not given: the % may be the effect or the level left.
For assay [37] the target is unchanged. The assay is described as follows: Inhibition of VEGFR2 internalization in HMEC1 cells assessed as membrane VEGFR2 level at 6 uM after 24 hrs by flow cytometry (reference value: 100%). Type of assay: cell-based. Set-up: scale not given: the % may be the effect or the level left.
The target is the same in assay [38]. The assay is described as follows: Inhibition of VEGFR2 internalization in HMEC1 cells at 6 uM after 24 hrs by immunofluorescence assay. Type of assay: cell-based.

Activity calls are given as the source filed them. No cut-off for these calls is given here.

A word on the IC50: it is the concentration that inhibits the measured activity by half.

Chain of Vascular endothelial growth factor receptor 2 (Homo sapiens) (P35968 whole entry): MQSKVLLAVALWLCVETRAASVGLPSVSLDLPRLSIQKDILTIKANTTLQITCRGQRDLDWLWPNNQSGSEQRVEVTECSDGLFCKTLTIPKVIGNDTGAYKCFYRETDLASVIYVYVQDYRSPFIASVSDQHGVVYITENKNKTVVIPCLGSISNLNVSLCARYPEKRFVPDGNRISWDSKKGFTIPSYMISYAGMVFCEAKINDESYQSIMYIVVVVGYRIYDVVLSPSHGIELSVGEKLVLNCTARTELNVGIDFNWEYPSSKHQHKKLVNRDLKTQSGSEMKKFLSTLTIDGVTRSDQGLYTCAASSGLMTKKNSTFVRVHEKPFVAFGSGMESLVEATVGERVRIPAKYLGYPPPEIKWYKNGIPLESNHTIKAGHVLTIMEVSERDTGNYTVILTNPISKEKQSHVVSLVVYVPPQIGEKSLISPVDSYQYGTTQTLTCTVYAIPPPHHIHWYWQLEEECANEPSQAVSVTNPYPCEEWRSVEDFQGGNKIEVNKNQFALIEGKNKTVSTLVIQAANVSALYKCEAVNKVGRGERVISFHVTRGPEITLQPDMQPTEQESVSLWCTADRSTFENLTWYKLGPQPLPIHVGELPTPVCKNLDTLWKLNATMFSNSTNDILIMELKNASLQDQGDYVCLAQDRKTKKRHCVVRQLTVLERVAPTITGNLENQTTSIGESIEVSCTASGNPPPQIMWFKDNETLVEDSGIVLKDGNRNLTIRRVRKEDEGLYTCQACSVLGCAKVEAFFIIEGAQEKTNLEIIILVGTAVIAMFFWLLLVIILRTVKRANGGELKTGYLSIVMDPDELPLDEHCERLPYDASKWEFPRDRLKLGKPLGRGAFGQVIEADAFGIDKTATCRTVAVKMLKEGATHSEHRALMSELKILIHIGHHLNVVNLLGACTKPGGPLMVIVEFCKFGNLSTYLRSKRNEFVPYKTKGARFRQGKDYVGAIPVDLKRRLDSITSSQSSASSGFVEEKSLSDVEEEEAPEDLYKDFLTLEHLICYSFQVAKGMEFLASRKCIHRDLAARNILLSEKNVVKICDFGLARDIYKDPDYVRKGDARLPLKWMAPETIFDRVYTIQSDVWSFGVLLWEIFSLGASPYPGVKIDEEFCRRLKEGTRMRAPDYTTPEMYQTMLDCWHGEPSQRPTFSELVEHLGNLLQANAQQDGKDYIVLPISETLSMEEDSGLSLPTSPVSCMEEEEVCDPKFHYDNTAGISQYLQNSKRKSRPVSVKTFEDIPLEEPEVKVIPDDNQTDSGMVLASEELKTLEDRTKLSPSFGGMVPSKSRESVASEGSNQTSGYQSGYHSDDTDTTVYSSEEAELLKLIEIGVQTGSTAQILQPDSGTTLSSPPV

Turning to `COc1ccc(/C=C\c2cc(OC)c(OC)c(OC)c2)cc1N`, the Activity with A549 [1] is 14%; in the assay with A549 [2] it was 24%; in the assay with A549 [3], 32%; in the assay with A549 [4], 21%; with A549 [5], 52%; in the assay on A549 [6], 41%.

With `COc1ccc(/C=C\c2cc(OC)c(OC)c(OC)c2)cc1NC(=O)Nc1cc(C)cc(C)c1`, the Activity in assay [7] was 15%; in assay [10] it was 62%. Also, the inhibition result in [8] and in assay [9] was “Active” each time.

Regarding `COc1ccc(/C=C\c2cc(OC)c(OC)c(OC)c2)cc1NC(=O)Nc1ccc(C)c(C)c1`, the figures for the Activity in [11] and in assay [15] were 61% and 148%, respectively. For the same molecule, the outcome on Tubulin (Homo sapiens) [12] was Active. The inhibition result in assay [13] and in assay [14] was “Active” throughout.

Regarding `COc1ccc(/C=C\c2cc(OC)c(OC)c(OC)c2)cc1NC(=O)Nc1ccc(Cl)c(C)c1`, the inhibition result in assay [16] and in assay [17] was “Active” each time. Also, the results for the Activity in assay [18] and in [19] were 80% and 100%, respectively.

On to `COc1ccc(/C=C\c2cc(OC)c(OC)c(OC)c2)cc1NC(=O)Nc1ccccc1Br`, for which the inhibition result in assay [20] and in [24] was “Active” each time. The outcome at Tubulin (Homo sapiens) [21] was Active. In addition, the Activity in assay [22] is 80%; in assay [23], 48%.

As for `COc1ccc(/C=C\c2cc(OC)c(OC)c(OC)c2)cc1NC(=O)Nc1cccc(Br)c1`, the result on Tubulin (Homo sapiens) [21] was Active.

In the case of `CNC(=O)c1cc(Oc2ccc(NC(=O)Nc3ccc(Cl)c(C(F)(F)F)c3)cc2)ccn1` [SORAFENIB], the IC50 worked out at 5 µM in the assay with HL-60 and 34 µM with HMEC-1. For the same molecule, the values for the Activity with A549 [3] and with A549 [5] were 30% and 38%, respectively.

For the molecule `COc1ccc(/C=C\c2cc(OC)c(OC)c(OC)c2)cc1NC(=O)Nc1cccc(C)c1`, the Activity in [25] is 71%; in [29] it was 87%. Further, the inhibition result in assay [26] and in assay [28] was “Active” throughout. Besides, at Tubulin (Homo sapiens) [27], the outcome was Active.

As for `CCN(CC)CCNC(=O)c1c(C)[nH]c(/C=C2\C(=O)Nc3ccc(F)cc32)c1C` [SUNITINIB], the Activity with A549 [30] turned out to be 47%; in the assay on A549 [31], 2.4%; in the assay on A549 [32], 16%; in the assay with A549 [33], 35%; in the assay on A549 [3] it was 38%; in the assay on A549 [5], 45%. The IC50 in the assay with HL-60 and in the assay with HMEC-1 was 7 µM throughout.

As to `COc1ccc(/C=C\c2cc(OC)c(OC)c(OC)c2)cc1NC(=O)Nc1cccc(Cl)c1C`, the Activity in assay [34] came to 97%; in assay [35], 71%. Also, the result at Tubulin (Homo sapiens) [21] was Active.

For the molecule `COc1ccc(/C=C\c2cc(OC)c(OC)c(OC)c2)cc1NC(=O)Nc1ccccc1Cl`, the figures for the Activity in assay [36] and in [37] were 46% and 43%, respectively. The inhibition entry in assay [24] and in assay [38] was “Active” throughout.
